Laboratory results reported in patent US20090238881A1, “IONOPHORE ANTIBIOTIC FORMULATIONS” (priority 2000, published 2009).

Assays:
[1] = Solubility of monensin in propylene glycol; assay type: physicochemical
From the text: There is an indication that 50% of the monensin was found in solution in the propylene glycol.
We have found monopropylene glycol to be a poor solvent of monensin. While we have in NZ 272574/272940 referred to monopropylene glycol as being an antifreeze agent in which the ionophore antibiotic is sparingly soluble, we do appreciate that solubility to the extent referred to in Example 1 of EP 0,139,595 may be achieved when induced with ultrasound or heating.

[2] = EP 0,139,595 Example 1: 250 g mycelium (10% monensin), 1250 cc propylene glycol, room temperature, 2 hours ultrasound; cited from earlier work
[3] = cited from earlier work

## monensin
[1]
  solubility in monopropylene glycol: poor solvent
[2]
  monensin found in solution in the propylene glycol: 50%
[3]
  solubility in water: only slightly soluble in water
